This is an account of results in patent publication US20190185479A1, “BICYCLIC NITROGENATED HETEROCYCLIC COMPOUND” (MITSUBISHI TANABE PHARMA CORPORATION, priority 2016, published 2019).

Holding throughout (assay type): biochemical
Test [1] deals with T1, Human PDE7B (hPDE7B) (Homo sapiens, UniProt Q9NP56).
T1 construct: made in house; host or cells: COS-7 cells
Description: Measurement of PDE7 inhibitory activity (Experimental Example 1; residual cAMP, LANCE Ultra cAMP TR-FRET). As to conditions: cAMP 3 nmol/L, room temperature 60 minutes. The essentials: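 hPDE7B from transfected COS-7 cells reacted with 3 nmol/L cAMP (final) and compound (2% DMSO) in 50 mmol/L Tris-HCl pH 7.5, 1 mmol/L MgCl2, 0.1% BSA, 0.5 mmol/L DTT, 60 min at room temperature. Reaction stopped with IBMX; residual cAMP measured by TR-FRET. Inhibition scaled between no-compound and no-enzyme controls.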

Test [2] has as its target T2, hPDE4D (Homo sapiens, UniProt Q08499).
T2 construct: purchased SB Drug Discovery
Briefly: PDE4 inhibition assay (IC50), Experimental Example 3. As to conditions: for IC50: hPDE4D, read-out: PDE inhibition assay IC50, PDE4; for inhibition at 10 µM: at 10 μmol/L. Summed up: (§1)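 Recombinant human enzymes incubated with compound and 3 nmol/L cAMP (final) in Tris-HCl pH 7.5 buffer with MgCl2, BSA, DTT, 2% DMSO final, 60 min at room temperature. Residual cAMP measured by TR-FRET (LANCE Ultra), reaction stopped with 0.5 mmol/L IBMX. IC50 from inhibition relative to no-compound (0%) and no-enzyme (100%) controls.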

Test [3] concerns the target T3, hPDE8B (Homo sapiens, UniProt O95263).
T3 construct: purchased SB Drug Discovery
Description: PDE8 inhibition assay (IC50), Experimental Example 3. As to conditions: for IC50: hPDE8B, read-out: PDE inhibition assay IC50, PDE8; for inhibition at 1 µM: at 1 μmol/L; for inhibition at 1 µM / inhibition at 0.1 µM / inhibition at 10 µM: read-out: inhibition rate (%) at prescribed concentration, PDE8; for inhibition at 0.1 µM: at 0.1 μmol/L; for inhibition at 10 µM: at 10 μmol/L. Summed up:
as §1

Test [4] deals with hPDE10A (Homo sapiens, UniProt Q9Y233). Briefly: PDE10 inhibition assay (IC50), Experimental Example 3. As to conditions: for IC50: hPDE10A, read-out: PDE inhibition assay IC50, PDE10; for inhibition at 10 µM: at 10 μmol/L. Summed up: as §1
hPDE10A, sequence (Q9Y233 290-1055 limits assumed): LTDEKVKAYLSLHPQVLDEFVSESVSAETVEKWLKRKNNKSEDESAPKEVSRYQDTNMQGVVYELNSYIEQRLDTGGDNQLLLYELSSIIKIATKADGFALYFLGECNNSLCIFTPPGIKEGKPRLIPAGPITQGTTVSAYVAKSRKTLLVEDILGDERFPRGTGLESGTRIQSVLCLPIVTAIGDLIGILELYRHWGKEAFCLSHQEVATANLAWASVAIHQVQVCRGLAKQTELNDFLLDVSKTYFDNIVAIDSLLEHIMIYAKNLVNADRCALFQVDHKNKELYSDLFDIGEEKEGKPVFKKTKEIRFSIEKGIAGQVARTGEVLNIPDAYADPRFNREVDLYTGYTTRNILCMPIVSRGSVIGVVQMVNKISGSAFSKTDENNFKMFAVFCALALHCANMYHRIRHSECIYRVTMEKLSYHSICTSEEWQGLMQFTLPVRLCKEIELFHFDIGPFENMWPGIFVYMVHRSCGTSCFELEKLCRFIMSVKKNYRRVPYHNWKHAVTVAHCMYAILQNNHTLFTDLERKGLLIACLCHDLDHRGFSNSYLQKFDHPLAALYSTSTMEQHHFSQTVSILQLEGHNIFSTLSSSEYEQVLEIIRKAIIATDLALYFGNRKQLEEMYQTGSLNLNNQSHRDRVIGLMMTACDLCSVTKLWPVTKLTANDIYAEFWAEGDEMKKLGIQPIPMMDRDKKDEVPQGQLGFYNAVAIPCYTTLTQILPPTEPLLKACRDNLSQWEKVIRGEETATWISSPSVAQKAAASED
Where [5] appears, read: read-out: inhibition rate (%) at prescribed concentration, PDE10.
[6] abbreviates: read-out: inhibition rate (%) at prescribed concentration, PDE4.

T3 sequence (O95263 whole entry): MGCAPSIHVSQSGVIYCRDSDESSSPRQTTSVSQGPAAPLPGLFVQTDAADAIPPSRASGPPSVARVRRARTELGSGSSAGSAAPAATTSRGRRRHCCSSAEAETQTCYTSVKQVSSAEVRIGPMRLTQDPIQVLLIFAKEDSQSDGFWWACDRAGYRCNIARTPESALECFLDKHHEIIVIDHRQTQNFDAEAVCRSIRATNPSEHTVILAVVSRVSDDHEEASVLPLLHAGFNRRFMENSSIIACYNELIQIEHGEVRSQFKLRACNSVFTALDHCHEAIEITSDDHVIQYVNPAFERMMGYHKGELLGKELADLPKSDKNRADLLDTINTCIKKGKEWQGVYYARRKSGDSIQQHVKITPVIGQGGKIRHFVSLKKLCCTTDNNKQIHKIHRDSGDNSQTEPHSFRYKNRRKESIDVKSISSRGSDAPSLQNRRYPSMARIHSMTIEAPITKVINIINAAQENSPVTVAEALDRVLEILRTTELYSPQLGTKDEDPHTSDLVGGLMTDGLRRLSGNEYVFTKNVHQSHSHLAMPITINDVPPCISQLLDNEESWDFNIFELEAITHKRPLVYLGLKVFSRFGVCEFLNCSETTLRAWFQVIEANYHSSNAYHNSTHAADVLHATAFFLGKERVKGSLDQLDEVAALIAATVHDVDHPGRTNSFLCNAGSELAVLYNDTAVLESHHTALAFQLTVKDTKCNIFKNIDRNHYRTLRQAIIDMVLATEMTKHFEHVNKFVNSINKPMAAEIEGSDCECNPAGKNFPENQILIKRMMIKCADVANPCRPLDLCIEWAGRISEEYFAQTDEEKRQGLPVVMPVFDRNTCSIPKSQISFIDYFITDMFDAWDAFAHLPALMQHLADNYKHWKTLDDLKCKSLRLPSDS
T1 sequence (Q9NP56 whole entry): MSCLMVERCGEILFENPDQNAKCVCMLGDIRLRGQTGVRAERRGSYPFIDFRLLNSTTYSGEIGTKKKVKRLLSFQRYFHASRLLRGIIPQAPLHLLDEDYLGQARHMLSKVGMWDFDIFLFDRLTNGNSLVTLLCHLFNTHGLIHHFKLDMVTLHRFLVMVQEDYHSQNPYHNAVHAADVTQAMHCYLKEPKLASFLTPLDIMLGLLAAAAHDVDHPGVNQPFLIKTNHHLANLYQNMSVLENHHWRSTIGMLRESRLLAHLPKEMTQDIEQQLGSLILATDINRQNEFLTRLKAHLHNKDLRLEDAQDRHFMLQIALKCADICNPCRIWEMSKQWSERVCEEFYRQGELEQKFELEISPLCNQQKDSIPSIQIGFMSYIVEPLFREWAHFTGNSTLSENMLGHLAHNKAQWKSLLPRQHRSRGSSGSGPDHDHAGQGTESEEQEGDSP
T2 sequence (Q08499 whole entry): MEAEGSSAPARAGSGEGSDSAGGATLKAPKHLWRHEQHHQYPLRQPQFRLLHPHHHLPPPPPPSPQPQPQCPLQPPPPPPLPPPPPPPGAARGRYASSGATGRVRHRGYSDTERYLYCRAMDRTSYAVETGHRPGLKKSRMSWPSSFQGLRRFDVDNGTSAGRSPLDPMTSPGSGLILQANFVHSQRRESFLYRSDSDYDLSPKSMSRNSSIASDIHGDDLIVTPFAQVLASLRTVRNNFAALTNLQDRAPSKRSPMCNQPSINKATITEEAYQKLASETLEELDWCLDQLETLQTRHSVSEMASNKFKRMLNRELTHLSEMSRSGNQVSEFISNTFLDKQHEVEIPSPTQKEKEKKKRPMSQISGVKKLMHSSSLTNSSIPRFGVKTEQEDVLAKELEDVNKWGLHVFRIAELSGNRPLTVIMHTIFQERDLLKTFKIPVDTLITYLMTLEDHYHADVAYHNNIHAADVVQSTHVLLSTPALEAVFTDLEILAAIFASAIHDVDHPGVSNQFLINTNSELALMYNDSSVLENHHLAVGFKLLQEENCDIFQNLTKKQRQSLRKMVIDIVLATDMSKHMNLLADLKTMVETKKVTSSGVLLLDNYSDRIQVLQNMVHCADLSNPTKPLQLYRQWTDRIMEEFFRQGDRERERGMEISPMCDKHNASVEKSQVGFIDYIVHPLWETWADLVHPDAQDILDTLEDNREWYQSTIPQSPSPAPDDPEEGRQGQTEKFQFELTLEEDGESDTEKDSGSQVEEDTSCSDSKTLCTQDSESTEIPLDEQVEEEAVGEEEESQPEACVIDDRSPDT

Broadly, the IC50 is the concentration that gives 50% inhibition. Turning to `CC1(C)CCCN(c2nnc3c(N)ncc(C4CC4)n23)C1` [Example 43, 5-cyclopropyl-3-(3,3-dimethylpiperidin-1-yl) [1,2,4]triazolo[4,3-a]pyrazin-8-amine], the IC50 in test [1] is 30 nM; in test [2], 2190 nM; in test [3], 1520 nM; in test [4], 2330 nM.
The corresponding values for `Nc1nccn2c(N3CCCC4(CC4)C3)nnc12` [Example 44] are 80 nM, 7850 nM, 5510 nM and 24100 nM.
For `Nc1nccn2c(N3CCCC(C(F)(F)F)C3)nnc12` (centres unmarked) [Example 46], in that order: 80 nM, 56900 nM, 7700 nM and 34500 nM.
`Nc1nccn2c(N3CCCC(Cc4ccccc4)C3)nnc12` (centres unmarked) [Example 48]: the IC50 in test [1] was determined as 70 nM; in test [2], 1300 nM. The inhibition at 1 µM turned out to be 79% in test [3] and 52% in test [4] (at 1 μmol/L, read-out: inhibition rate (%) at prescribed concentration, PDE10).
Consider `C[C@@H]1C[C@H](C)CN(c2nnc3c(N)nccn23)C1` [Example 52], for which the IC50 came out at 80 nM in test [1], 8190 nM in test [2], 1160 nM in test [3] and 6800 nM in test [4].
Regarding `Nc1nccn2c(N3C4CCCC3CC4)nnc12` [Example 67], the IC50 amounted to 90 nM in test [1], 21000 nM in test [2], 15000 nM in test [3] and 31800 nM in test [4].
As for `Nc1ncnn2c(C3CCCCC3)nnc12` [Example 68, 3-cyclohexyl[1,2,4]triazolo[3,4-f][1,2,4]triazin-8-amine], the IC50 came to 20 nM in test [1], 4130 nM in test [2] and 500 nM in test [3]. Moreover, the inhibition at 10 µM in test [4] (setting [5]) was found to be 34%.
In the case of `Cc1cnc(N)c2nnc(N3CCCC(C)(C)C3)n12` [Example 80, 3-(3,3-dimethylpiperidin-1-yl)-5-methyl[1,2,4]triazolo[4,3-a]pyrazin-8-amine], the IC50 was 3 nM in test [1], 6000 nM in test [2], 3000 nM in test [3] and 8000 nM in test [4].
With `Nc1ncnc2c1nnn2[C@@H]1CCCOC1` [Example 90], the IC50 in test [1] was found to be 120 nM; in test [2], 3700 nM; in test [4], 19000 nM. In addition, the inhibition at 1 µM in test [3] worked out at 59%.
With `C[C@H]1CC[C@@H](n2nnc3c(N)ncnc32)CC1` [Example 99, 3-(cis-4-methylcyclohexyl)-3H-[1,2,3]triazolo[4,5-d]pyrimidin-7-amine], the IC50 was 20 nM in test [1], 1600 nM in test [2] and 120 nM in test [3]. Also, in test [4] (setting [5]), the inhibition at 10 µM came to 38%.
Consider `CC1(C)CCC(n2nnc3c(N)ncnc32)CC1` [Example 101, 3-(4,4-dimethylcyclohexyl)-3H-[1,2,3]triazolo[4,5-d]pyrimidin-7-amine], for which the IC50 in test [1] is 20 nM; in test [2], 640 nM; in test [4], 5840 nM. For the same molecule, the inhibition at 0.1 µM in test [3] worked out at 69%.
For `Nc1ncnc2c1nnn2C1CCC(F)(F)CC1` [Example 104], the IC50 in test [1] came to 170 nM; in test [2], 9450 nM; in test [3] it was 2060 nM. Further, the inhibition at 10 µM in test [4] (setting [5]) stood at 25%.
The corresponding values for `Nc1ncnc2c1nnn2C1CCCCCC1` [Example 110, 3-cycloheptyl-3H-[1,2,3]triazolo[4,5-d]pyrimidin-7-amine] are 30 nM, 3500 nM, 590 nM and 33%.
For the molecule `CN1CCC[C@H](n2nnc3c(N)ncnc32)C1` [Example 135, 3-[(3S)-1-methylpiperidin-3-yl]-3H-[1,2,3]triazolo[4,5-d]pyrimidin-7-amine], the IC50 in test [1] was 310 nM; in test [3], 9410 nM. Moreover, the inhibition at 10 µM came out at 17% in test [2] (setting [6]) and 22% in test [4] (setting [5]).
In the case of `Nc1nccn2c(C3(F)CCCCC3)nnc12` [Example 142, 3-(1-fluorocyclohexyl) [1,2,4]triazolo[4,3-a]pyrazin-8-amine], the IC50 in test [1] was 50 nM; in test [2], 5720 nM. Further, the inhibition at 10 µM was 49% in test [3] and 48% in test [4] (setting [5]).
Consider `C[C@H]1CC[C@H](c2nnc3c(N)nccn32)CC1` [Example 149, 3-(trans-4-methylcyclohexyl) [1,2,4]triazolo[4,3-a]pyrazin-8-amine], for which the IC50 in test [1] turned out to be 40 nM; in test [2] it was 2200 nM; in test [3], 1660 nM. In addition, the inhibition at 10 µM in test [4] (setting [5]) was found to be 46%.
With `CC1CCC(F)(F)CC1c1nnc2c(N)nccn12` (centres unmarked) [Example 153], the half-maximal inhibitory concentration (IC50) in test [1] is 70 nM; in test [2] it was 35100 nM; in test [3], 21900 nM; in test [4] it was 18600 nM.
Take `Nc1nccn2c(C3CCc4[nH]ncc4C3)nnc12` (centres unmarked) [Example 159]: the IC50 in test [1] is 60 nM; in test [2] it was 4770 nM; in test [3], 3510 nM; in test [4] it was 10600 nM.
Turning to `Nc1nccn2c([C@@H]3C[C@@H]4[C@H](C3)C4(F)F)nnc12` [Example 160], the IC50 worked out at 80 nM in test [1], 3410 nM in test [2] and 34900 nM in test [4]. The inhibition at 1 µM in test [3] was 54%.
For `Nc1nccn2c(C3CCCC3)nnc12` [Example 161], the values for the IC50 in test [1], in test [2] and in test [3] were 110 nM, 5500 nM and 1770 nM, respectively. The inhibition at 10 µM in test [4] (setting [5]) amounted to 27%.
`Nc1nccn2c(C3[C@H]4CCCC[C@@H]34)nnc12` (stereo partly drawn) [Example 164, 3-[(1R,6S,7r)-bicyclo[4.1.0]hept-7-yl][1,2,4]triazolo[4,3-a]pyrazin-8-amine]: the IC50 in test [1] is 30 nM; in test [2], 3790 nM; in test [3], 4400 nM. For the same molecule, the inhibition at 10 µM in test [4] (setting [5]) came out at 41%.
The corresponding values for `Nc1nccn2c(N3CCCCC3)nnc12` [Example 166] are 160 nM, 3870 nM, 8890 nM and 39%.
Regarding `CC(C)(C)OC(=O)N1CCC[C@H](c2nnc3c(N)nccn23)C1` [Example 167], the IC50 in test [1] stood at 60 nM; in test [4], 3700 nM. Also, the inhibition at 0.1 µM amounted to 66% in test [2] (at 0.1 μmol/L, read-out: inhibition rate (%) at prescribed concentration, PDE4) and 98% in test [3].
For `Nc1nccn2c(C3CCCOC3)nnc12` (centres unmarked) [Example 169], the IC50 in test [1] worked out at 90 nM; in test [3] it was 1740 nM; in test [4] it was 20800 nM. Further, the inhibition at 10 µM in test [2] (setting [6]) turned out to be 33%.
For `Cc1cnc(N)c2nnc(C3CCCCC3)n12` [Example 171, 3-cyclohexyl-5-methyl[1,2,4]triazolo[4,3-a]pyrazin-8-amine], in that order: 70 nM, 2950 nM, 7200 nM and 48%.
As to `Nc1nccn2c([C@H]3[C@@H]4CCC[C@@H]43)nnc12` [Example 179, 3-[(1R,5S,6r)-bicyclo[3.1.0]hex-6-yl][1,2,4]triazolo[4,3-a]pyrazin-8-amine], the IC50 was 80 nM in test [1], 4700 nM in test [2], 4000 nM in test [3] and 17900 nM in test [4].
Consider `Nc1nccn2c(C3CCCCC3)ncc12` [Example 180, 3-cyclohexylimidazo[1,5-a]pyrazin-8-amine], for which the values for the IC50 in test [1] and in test [2] were 390 nM and 7800 nM, respectively. For the same molecule, the results for the inhibition at 10 µM in test [3] and in test [4] (setting [5]) were 36% and 41%, respectively.
On to `Nc1ncnc2c1cnn2C1CCCCC1` [Example 181], for which the IC50 in test [1] is 340 nM. In addition, the inhibition at 10 µM in test [2] (setting [6]) is 21%; in test [3], 24%; in test [4] (setting [5]), 49%.
On to `Cc1nn(C2CCCCC2)c2ncnc(N)c12` [Example 184], for which the IC50 in test [1] was found to be 540 nM; in test [4], 500 nM. For the same molecule, the inhibition at 10 µM in test [2] (setting [6]) was determined as 48%; in test [3], 18%.
For `Nc1cccn2c(C3CCCCC3)nnc12` [Example 186, 3-cyclohexyl[1,2,4]triazolo[4,3-a]pyridin-8-amine], the IC50 in test [1] stood at 460 nM. The inhibition at 10 µM in test [2] (setting [6]) was -5%; in test [3], -1%; in test [4] (setting [5]) it was 7%.
Take `Nc1ncnc2c(C3CCCCC3)noc12` [Example 188, 3-cyclohexylisoxazolo[4,5-d]pyrimidin-7-amine]: the figures for the IC50 in test [1] and in test [3] were 210 nM and 7330 nM, respectively. Besides, the inhibition at 10 µM in test [2] (setting [6]) was 38%; in test [4] (setting [5]) it was 50%.
`Nc1cncn2c(C3CCCCC3)nnc12` [Example 189, 3-cyclohexyl[1,2,4]triazolo[4,3-c]pyrimidin-8-amine]: the IC50 in test [1] was determined as 470 nM. Moreover, the inhibition at 10 µM in test [2] (setting [6]) stood at 22%; in test [3], 24%; in test [4] (setting [5]) it was 0.9%.
